Numbered stars: 1 amine (or outer) side, 2 acyl side, 3 side chain; on linkers, the order of the positions; unused ones are H or OH. Bridge positions count the residues as written; N and C are the ends. Square brackets hold non-standard residues; d marks the D form. Peptide text beside a SMILES is read from it. * marks the point of attachment. C20 diacid = O=C(O)CCCCCCCCCCCCCCCCCCC(=O)*; γGlu = O=C(O)[C@H](CCC(=O)[*:2])N[*:1]; Hyp = O=C(O)[C@@H]1C[C@@H](O)CN1; NMeI = CC[C@H](C)[C@H](NC)C(=O)O; Sar = CNCC(=O)O
Legend:
[1] = target: T1, human amylin receptor 3 (hAMYR3) consisting of hCTR2 co-expressed with human Receptor Activity Modifying Protein 3 (hRAMP3) (Homo sapiens, UniProt O60896+P30988); experiment: hAMYR3 assay: induction of cAMP (AlphaScreen cAMP Assay kit) in COS7 cells expressing hAMYR3; assay type: cell-based; conditions: cAMP induction in COS7 cells expressing hAMYR3; average of a minimum of 3 determinations; read-out: hAMY R3 EC50
T1 construct: expressed in transfected cells
T1 sequence (P30988 25-474): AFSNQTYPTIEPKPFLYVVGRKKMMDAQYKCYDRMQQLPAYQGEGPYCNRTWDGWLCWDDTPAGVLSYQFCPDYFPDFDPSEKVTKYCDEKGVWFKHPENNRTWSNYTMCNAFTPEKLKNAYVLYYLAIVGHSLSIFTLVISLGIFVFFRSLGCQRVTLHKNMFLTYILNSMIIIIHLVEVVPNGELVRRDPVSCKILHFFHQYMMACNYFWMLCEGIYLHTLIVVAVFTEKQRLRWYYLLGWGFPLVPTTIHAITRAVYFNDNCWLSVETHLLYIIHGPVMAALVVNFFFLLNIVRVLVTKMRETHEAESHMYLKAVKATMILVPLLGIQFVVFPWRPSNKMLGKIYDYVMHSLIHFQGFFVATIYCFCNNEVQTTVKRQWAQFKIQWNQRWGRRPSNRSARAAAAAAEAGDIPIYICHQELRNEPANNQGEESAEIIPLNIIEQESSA
T1 sequence (O60896 24-148 partner): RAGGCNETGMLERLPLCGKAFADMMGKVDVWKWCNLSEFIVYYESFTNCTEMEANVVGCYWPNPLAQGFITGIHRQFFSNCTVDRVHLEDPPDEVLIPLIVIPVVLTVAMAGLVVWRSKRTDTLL
In short: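 cAMP accumulation read by AlphaScreen in lysates of RAMP-naive COS7 cells stably transfected with hCTR2 plus hRAMP3. Cells exposed to peptide dilutions for 15 min, 37° C, with 100 µM IBMX; 4PL fitting gave EC50 and efficacy relative to pramlintide.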

[2] = target: T2, human calcitonin receptor (hCTR2) (Homo sapiens, UniProt P30988); experiment: hCTR2 assay: induction of cAMP (AlphaScreen cAMP Assay kit) in COS7 cells expressing hCTR2; assay type: cell-based; conditions: cAMP induction in COS7 cells expressing hCTR2; average of a minimum of 3 determinations; read-out: hCTR2 EC50
T2 construct: expressed in transfected cells
T2 sequence (P30988 25-474): T1 sequence (P30988 25-474)
In short: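 Cells were seeded one day ahead, washed, then exposed to rising peptide concentrations for 15 min at 37° C in the presence of 100 µM IBMX. After lysis for 10 min at room temperature, cAMP was quantified by AlphaScreen and EC50 values derived by 4PL fitting.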

[3] = Solubility assessment (turbidity absorbance at 325 nm); assay type: physicochemical; conditions: stock 2 mg/ml diluted 1:1, ambient temperature (typically 25°C), n=1; for Solubility, Acetate buffer pH 4: 100 mM acetate buffer pH 4.0; for Solubility, Acetate buffer pH 5: 100 mM acetate buffer pH 5.0; for Solubility, Histidine buffer pH 6: 100 mM histidine buffer pH 6.0; for Solubility, Histidine buffer pH 7: 100 mM histidine buffer pH 7.0; for Solubility, Phosphate buffer pH 6: 100 mM phosphate buffer pH 6.0; for Solubility, Phosphate buffer pH 7: 100 mM phosphate buffer pH 7.0; for Solubility, Phosphate buffer pH 7.5: 100 mM phosphate buffer pH7.5
In short: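 Read-out: turbidity as absorbance at 325 nm (280 nm also read), single samples, ambient temperature of typically 25°C. Samples were a 1:1 mix of 2 mg/ml stock (water, pH 2.5) with 100 mM acetate, histidine or phosphate buffers spanning pH 4.0–7.5. Cut-off: A325 ≤ 0.02 indicates ≥ 1 mg/ml.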

[4] = Assessment of physical stability: fibril formation detected with Thioflavin T (ThT), lag-time; assay type: physicochemical; conditions: 1 mg/ml peptide, 40 µM ThT, FND = Fibrillation not detected
Procedure: Solutions containing (i) 1 mg/ml of test peptide, 40 µM ThT and 50 mM phosphate (Ph) buffer (pH 7.0), (ii) 1 mg/ml of test peptide, 40 µM ThT and 50 mM histidine (His) buffer (pH 7.0), and (iii) 1 mg/ml of test peptide, 40 µM ThT and 50 mM acetate (Ac) buffer (pH 4.0), were loaded in a 96-well black fluorescence plate (clear bottom) in triplicate. Data were collected at fixed intervals of 10 min, each preceded by 300 s of automixing (agitation), over a period of 96 hours at 40° C. Physical stability, expressed as lag-time of fibril formation (in hours), was defined as the intersection between two linear regressions representing the initial stable phase and the growth phase.

SMILES | EC50 [1] [nM] | EC50 [2] [nM] | Solubility, Acetate buffer pH 4 [3] | Solubility, Acetate buffer pH 5 [3] | Solubility, Histidine buffer pH 6 [3] | Solubility, Histidine buffer pH 7 [3] | Solubility, Phosphate buffer pH 6 [3] | Solubility, Phosphate buffer pH 7 [3] | Solubility, Phosphate buffer pH 7.5 [3] | Fibrillation lag time (hours) pH 4.0 (Ac) ([4]; 50 mM acetate buffer pH 4.0, 96 hours at 40°C) [hours] | Fibrillation lag time (hours) pH 7.0 (Ph) ([4]; 50 mM phosphate buffer pH 7.0, 96 hours at 40°C) [hours]
CC[C@H](C)[C@@H](C(=O)N[C@@H](CC(C)C)C(=O)N[C@@H](CO)C(=O)N[C@@H](CO)C(=O)N[C@H](C(=O)N[C@@H](CCC(=O)O)C(=O)N[C@H](C(=O)NCC(=O)N[C@@H](CO)C(=O)N[C@@H](CCC(=O)O)C(=O)N[C@H](C(=O)N1C[C@H](O)C[C@H]1C(N)=O)[C@@H](C)O)C(C)C)[C@@H](C)O)N(C)C(=O)CN(C)C(=O)[C@H](Cc1ccccc1)NC(=O)[C@H](CO)NC(=O)[C@H](CO)NC(=O)[C@H](CCCNC(=N)N)NC(=O)[C@H](Cc1c[nH]cn1)NC(=O)[C@H](CC(C)C)NC(=O)[C@H](Cc1ccccc1)NC(=O)[C@H](CCC(=O)O)NC(=O)[C@H](C)NC(=O)[C@H](CC(C)C)NC(=O)[C@H](CCCNC(=N)N)NC(=O)[C@H](CCC(=O)O)NC(=O)[C@@H](NC(=O)[C@H](C)NC(=O)[C@@H]1CSSC[C@H](NC(=O)[C@H](CCCNC(=N)N)NC(=O)CC[C@H](NC(=O)CCCCCCCCCCCCCCCCCCC(=O)O)C(=O)O)C(=O)NCC(=O)N[C@@H]([C@@H](C)O)C(=O)N[C@@H](C)C(=O)N[C@@H]([C@@H](C)O)C(=O)N1)[C@@H](C)O [Compound 167, [19CD]-isoGlu-RC()GTATC()ATERLAEFLHRSSF-Gly(Me)-Ile(Me)-LSSTEVGSET-Hyp-NH2] ({C20 diacid-γGlu}-RCGTATCATERLAEFLHRSSF[Sar][NMeI]LSSTEVGSET[Hyp]-NH2; disulfide 2-7) | 0.11 | 0.078 | SS (SS indicates solubility ≥ 1mg/ml) | SS (SS indicates solubility ≥ 1mg/ml) | SS (SS indicates solubility ≥ 1mg/ml) | SS (SS indicates solubility ≥ 1mg/ml) | SS (SS indicates solubility ≥ 1mg/ml) | SS (SS indicates solubility ≥ 1mg/ml) | SS (SS indicates solubility ≥ 1mg/ml) |  | 
CC[C@H](C)[C@@H](C(=O)N[C@@H](CC(C)C)C(=O)N[C@@H](CO)C(=O)N[C@@H](CO)C(=O)N[C@H](C(=O)N[C@@H](CCC(=O)O)C(=O)N[C@H](C(=O)NCC(=O)N[C@@H](CO)C(=O)N[C@@H](CCC(=O)O)C(=O)N[C@H](C(=O)N1C[C@H](O)C[C@H]1C(N)=O)[C@@H](C)O)C(C)C)[C@@H](C)O)N(C)C(=O)[C@H](C)NC(=O)CN(C)C(=O)[C@H](Cc1ccccc1)NC(=O)[C@H](CO)NC(=O)[C@H](CO)NC(=O)[C@H](CO)NC(=O)[C@H](CO)NC(=O)[C@H](CCCNC(=N)N)NC(=O)[C@H](Cc1c[nH]cn1)NC(=O)[C@H](CC(C)C)NC(=O)[C@H](Cc1ccccc1)NC(=O)[C@H](CCC(=O)O)NC(=O)[C@H](C)NC(=O)[C@H](CC(C)C)NC(=O)[C@H](CCCNC(=N)N)NC(=O)[C@H](CCC(=O)O)NC(=O)[C@@H](NC(=O)[C@H](C)NC(=O)[C@@H]1CSSC[C@H](NC(=O)[C@H](CCCCN)NC(=O)[C@H](CCCCN)NC(=O)CC[C@H](NC(=O)CCCCCCCCCCCCCCCCCCC(=O)O)C(=O)O)C(=O)N[C@@H](CCC(=O)O)C(=O)N[C@@H]([C@@H](C)O)C(=O)N[C@@H](C)C(=O)N[C@@H]([C@@H](C)O)C(=O)N1)[C@@H](C)O [Compound 168, [19CD]-isoGlu-KKC()ETATC()ATERLAEFLHRSSSSF-Gly(Me)-A-Ile(Me)-LSSTEVGSET-Hyp-NH2] ({C20 diacid-γGlu}-KKCETATCATERLAEFLHRSSSSF[Sar]A[NMeI]LSSTEVGSET[Hyp]-NH2; disulfide 3-8) | 0.7 | 0.57 | SS (SS indicates solubility ≥ 1mg/ml) | II (II indicates solubility ≤ 1 mg/ml) | SS (SS indicates solubility ≥ 1mg/ml) | SS (SS indicates solubility ≥ 1mg/ml) | SS (SS indicates solubility ≥ 1mg/ml) | SS (SS indicates solubility ≥ 1mg/ml) | SS (SS indicates solubility ≥ 1mg/ml) |  | 
CC[C@H](C)[C@H](NC(=O)[C@@H]1CCCN1C(=O)CNC(=O)[C@H](Cc1ccccc1)NC(=O)[C@H](CC(N)=O)NC(=O)[C@H](CC(N)=O)NC(=O)[C@H](CO)NC(=O)[C@H](CO)NC(=O)[C@H](Cc1c[nH]cn1)NC(=O)[C@@H](NC(=O)[C@H](CC(C)C)NC(=O)[C@H](Cc1ccccc1)NC(=O)[C@H](CC(N)=O)NC(=O)[C@H](C)NC(=O)[C@H](CC(C)C)NC(=O)[C@H](CCCNC(=N)N)NC(=O)[C@H](CCC(N)=O)NC(=O)[C@@H](NC(=O)[C@H](C)NC(=O)[C@@H]1CSSC[C@H](NC(=O)[C@@H](N)CCCCN)C(=O)N[C@@H](CC(N)=O)C(=O)N[C@@H]([C@@H](C)O)C(=O)N[C@@H](C)C(=O)N[C@@H]([C@@H](C)O)C(=O)N1)[C@@H](C)O)C(C)C)C(=O)N[C@@H](CC(C)C)C(=O)N1CCC[C@H]1C(=O)N1CCC[C@H]1C(=O)N[C@H](C(=O)N[C@@H](CC(N)=O)C(=O)N[C@H](C(=O)NCC(=O)N[C@@H](CO)C(=O)N[C@@H](CC(N)=O)C(=O)N[C@H](C(=O)N[C@@H](Cc1ccc(O)cc1)C(N)=O)[C@@H](C)O)C(C)C)[C@@H](C)O [pramlin tide] |  |  |  |  |  |  |  |  |  | 48 | 2

From patent publication EP3046573B1, “AMYLIN ANALOGUES” (Zealand Pharma A/S, priority 2013, dated 2015)
